Data published in patent US10940139B2, “Compounds that interact with the Ras superfamily for the treatment of cancers, inflammatory diseases, rasopathies, and fibrotic disease” (Shy Therapeutics LLC, priority 2017, dated 2021).

Target: KRas G12D/Q61H double mutant (Homo sapiens (Human), UniProt P01116, G12D/Q61H)
Assay: Ras GTP binding domain inhibition assay (labeled GTP)
Conditions: 20 μM compound; KRas G12D/Q61H double mutant; read-out: % Inhibition at 20 μM of K-Ras mutant and wild-type protein, KRas G12D Q61H
Experimental: Buffer-I: • 50 mM Tris, pH 7.5 • 150 mM NaCl (optional) • 1 mM MgCl2 • 1 mM DTT. • KRas G12D mutant protein was expressed as a His-tagged protein. Purified His-KRas G12D protein was diluted in buffer-I to a final concentration of 3-10 μg/ml. • 200 μl of the diluted His-KRas G12D protein was added to a nickel coated 96 well plate and incubated overnight at 4° C. • The next day, wells were washed 3× in 200 μl of Buffer-I. • Then 200 μl of Buffer-I were added to each well in the presence of 1% DMSO. • Tested compounds were added to the protein-coated wells at a concentration of 20 μM, and incubated for 3 hours at room temperature. While performing IC50 measurements a serial dilution of all tested concentrations was prepared.
Then 22 μl of Cy3-GTP or Cy5-GTP was added to each well. The labeled GTP was incubated for 45 min. at room temperature. • Following GTP incubation, wells were washed 3× in Buffer-I, and 200 μl of Buffer-I were added to each well. • Following washes, the amount of bound labeled-GTP was measured with an Eppendorf AF2200 plate reader.
By substituting KRas G12D mutant protein with KRas G12C mutant, KRas wild type, KRas Q61H mutant, KRas G12D/Q61H double mutant or KRas G12C/Q61H double mutant under the assay conditions described above, KRas G12C mutant KRas wild type, KRas Q61H mutant, KRas G12D/Q61H double mutant and KRas G12C/Q61H double mutant inhibition, respectively, were each determined.

KRas G12D/Q61H double mutant, sequence (P01116-2 other isoform, or with tags, fused parts or gaps G12D/Q61H): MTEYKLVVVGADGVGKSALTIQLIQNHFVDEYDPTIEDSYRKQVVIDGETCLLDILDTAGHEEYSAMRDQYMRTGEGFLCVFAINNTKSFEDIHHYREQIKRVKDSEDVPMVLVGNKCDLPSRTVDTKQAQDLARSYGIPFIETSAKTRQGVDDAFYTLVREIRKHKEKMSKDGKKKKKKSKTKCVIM

inhibition at 20 µM	Structure (SMILES)
25 to 50%	CC1CCCN(S(=O)(=O)c2ccc(NCc3ccc(C(=O)N(C)C(C)C)cc3)c([N+](=O)[O-])c2)C1 (centres unmarked)
25 to 50%	CN(Cc1nnc(-c2ccc(F)cc2)o1)CC12CC3CC(CC(C3)C1)C2
25 to 50%	CCOc1ccccc1CN(CCCn1ccnc1)C(=O)Nc1ccc(OC(F)F)c(Cl)c1
1 to 25%	CN(C)S(=O)(=O)c1ccc(OCCn2c(=O)c(N3CCCCC3)c(N)n(C)c2=O)cc1
25 to 50%	O=C(COCC(F)(F)F)Nc1nnc(-c2ccccn2)[nH]1
25 to 50%	Cc1cc(C)c(S(=O)(=O)Nc2ccc(Oc3ccccc3C#N)nc2)c(C)c1
25 to 50%	CCCOc1ccc2ccccc2c1CN(C)Cc1nnc(-c2ccccc2)o1
51 to 75%	CC(COc1ccc(Oc2ccccc2)cc1)Oc1ccc(C(F)(F)F)cn1 (centres unmarked)
25 to 50%	COc1ccc(OC)c(CCC(=O)N2CCN(c3ncc(C(F)(F)F)cc3Cl)CC2)c1
1 to 25%	O=C(C1CCN(c2ccccc2[N+](=O)[O-])CC1)N1CCCC1C1CCCCC1 (centres unmarked)
25 to 50%	COCCn1c(SC(C)c2nc(-c3cccnc3)no2)nc2cc(Cl)ccc2c1=O (centres unmarked)
1 to 25%	O=c1[nH]c(NCC(O)c2ccccc2)nc2ccccc12 (centres unmarked)
51 to 75%	CCOc1ccc(Oc2ccc(C(F)(F)F)cc2NCc2nc(C)no2)cc1
51 to 75%	O=C(CCOCc1ccccc1)Nc1nnc(-c2ccccn2)[nH]1
25 to 50%	COc1ccc2c(c1)C(N(Cc1ccccc1)Cc1nc(CC(C)C)no1)CCO2 (centres unmarked)
25 to 50%	COc1ccc(CN(C)Cc2ccc(OC)c(SC(F)(F)F)c2)cc1F
51 to 75%	OCCCCCSc1n[nH]c(-c2ccccn2)n1
1 to 25%	c1ccc(Cc2nc(CN(CCn3cccn3)Cc3csc(Cc4ccccc4)n3)cs2)cc1
51 to 75%	CCN(CCNC(=O)c1oc(-c2ccccc2)nc1C)c1ccccc1C
25 to 50%	CC(O)(c1ccc(OCc2csc(Cc3ccccc3)n2)cc1)C(F)(F)F (centres unmarked)
1 to 25%	Cc1ccccc1N(CC(=O)NCC1CCCCCC1)S(C)(=O)=O

inhibition at 20 µM	Structure (SMILES)
25 to 50%	CC(=O)c1cc(C(=O)Nc2cccc(COC3CCCCC3)c2)n(C)c1
1 to 25%	O=C(Cc1ccccc1[N+](=O)[O-])N1CCCC1C1CCCC1 (centres unmarked)
25 to 50%	CC(C)=CC1C(C(=O)NCc2ccc(OCC(F)(F)F)nc2)C1(C)C (centres unmarked)
25 to 50%	Cc1ccc(S(=O)(=O)N2CCN(C(=O)CNC(=O)c3ncccc3O)CC2)s1
25 to 50%	COC(=O)c1cc(Cn2nc(C(=O)OC)c(Br)c2C2CC2)c(C)s1
25 to 50%	CC1CCC(NS(=O)(=O)CC(=O)N2CCCC2Cc2ccccc2Cl)CC1 (centres unmarked)
25 to 50%	CN(Cc1ccccc1C(F)(F)F)S(=O)(=O)CCc1ccccc1[N+](=O)[O-]
25 to 50%	CCOc1ccc(C2=NN(C(=O)CC)C(c3ccc(CC)cc3)C2)cc1 (centres unmarked)
25 to 50%	COC(=O)C1CCN(S(=O)(=O)NCCOc2ccc(C(C)(C)C)cc2)CC1
1 to 25%	NCC(=O)NCc1ccc(Oc2ccc(F)c(F)c2)cc1C(F)(F)F
25 to 50%	OCC1(Cc2ccccc2)CCCN1c1nc(-c2ccccn2)nc2c1CCC2 (centres unmarked)
25 to 50%	O=[N+]([O-])c1cc(C(F)(F)F)ccc1NCc1ccc2c(c1)OCCCO2
25 to 50%	CCOc1ccc(CSc2nnc(-c3ccco3)n2-c2ccccc2)cc1OCC
1 to 25%	COc1ccc(-c2cc(NC(=O)C3CC(=O)N(C(C)c4ccccc4)C3)ccc2OC)cc1 (centres unmarked)
51 to 75%	CCC(C)(C)c1ccc(Oc2ccc(NC(=O)NS(=O)(=O)c3ccc(C)cc3)cc2)cc1
51 to 75%	CCc1noc(CN(CCN(Cc2nc(CC)no2)c2ccccc2)c2ccccc2)n1
51 to 75%	CCN(c1ncc(C(=O)OC)s1)S(=O)(=O)c1ccc(C)c(C)c1
1 to 25%	CCNC(=O)COc1ccc(CN2CCN(C3CC3)c3ccc(F)cc32)cc1
25 to 50%	COC(=O)c1cc(NCc2cnc(C(C)(C)C)s2)ccc1Br
25 to 50%	CCOC(=O)c1c(NC(C)=O)sc(Cc2ccc3c(c2)OCO3)c1C
51 to 75%	COC(=O)c1ccoc1COc1ccc(C(=O)c2ccc(F)cc2)cc1

The next lines start with the compound.

Structure (SMILES)	inhibition at 20 µM
NC(=O)C1CCCN1Cc1cccc(NC(=O)c2ccccc2OCCOc2ccccc2)c1 (centres unmarked)	25 to 50%
Cc1sc2nc(-c3ccccn3)nc(NCC(=O)N3CCC(O)CC3)c2c1-c1ccccc1	25 to 50%
O=C(COC1CCCC1)Nc1nnc(-c2ccccn2)[nH]1	51 to 75%
O=C(COC1CCCCC1)Nc1nnc(-c2ccccn2)[nH]1	51 to 75%
COc1cccc(-c2nc(C(=O)N3CCC(c4ccccc4)CC3)c[nH]2)c1OC	25 to 50%
COc1ccc(C(=O)NC(C)Cc2ccc(-c3ccccc3)cc2)c(OC)c1OC (centres unmarked)	25 to 50%
COCCCN(C(=O)c1ccc(-n2nc(C)c(Cl)c2C)cc1)S(=O)(=O)c1ccc(OC)cc1	25 to 50%
CCCn1c(-c2cccc(C)c2)nnc1S(=O)(=O)Cc1csc(-c2cccc(OC)c2)n1	51 to 75%
CCOC(=O)c1c(-c2ccc(C)cc2)csc1NC(=O)CN(C)CC(=O)NC1CCC(O)CC1 (centres unmarked)	25 to 50%
O=C(CN(Cc1csc(COc2ccc(F)cc2)n1)Cc1ccco1)Nc1ccccc1	25 to 50%
CCN1CCN(Cc2ccc(NC(=O)c3cc(OC)c(OC)cc3OC)cc2)CC1	1 to 25%
C#CCN(Cc1ccc(C)cc1)c1ccc(C#N)cc1[N+](=O)[O-]	1 to 25%
Cc1cc(C)c2c(N)c(C(=O)OCc3ccc(C(=O)N4CCCC4)cc3)sc2n1	1 to 25%
COc1cccc(N2CCN(C(=O)c3ccccc3SCC(=O)N3CCc4ccccc43)CC2)c1	1 to 25%
COc1ccc(COCC(CNC(=O)c2cc(C)cc(C)c2)OC(=O)c2cc(C)cc(C)c2)cc1 (centres unmarked)	25 to 50%
CCCOc1nc2ccccc2nc1N1CCN(c2ccccc2F)CC1	25 to 50%
COc1ccc(N(C(=O)c2ccc(COc3ccccc3)o2)C(C)C2CC2)cc1 (centres unmarked)	25 to 50%
COC(=O)c1ccc(CCSc2nnc(COc3cccc(C)c3)o2)cc1	25 to 50%
Cc1ccccc1OCCN(C)c1ccc([N+](=O)[O-])c(OC(F)F)c1	25 to 50%

Structure (SMILES)	inhibition at 20 µM
CCC(C)Sc1ccc(NC(=O)c2ccccc2OCCOC)c(C(F)(F)F)c1 (centres unmarked)	25 to 50%
CCCCOCCN(C(=O)c1ccn(-c2ccccc2)n1)c1ccccc1Br	25 to 50%
COc1ccc(CCN2CCN(c3ccc(C#N)c(C(F)(F)F)c3)CC2)cc1	25 to 50%
CCN(C(=O)c1cccc(-n2cccn2)c1)c1ccc(C#N)c(Cl)c1	1 to 25%
COc1ccc(Cl)cc1CN(c1ccccc1F)S(=O)(=O)C(C)C	25 to 50%
FC(F)Oc1ccc(N2CCOC(c3ccc(Br)cc3)C2)nc1 (centres unmarked)	25 to 50%
CCCn1c(CNc2cccc(Cl)c2OCCOCC)nc2cc(S(=O)(=O)N(C)C)ccc21	25 to 50%
COc1ccc(C)cc1-n1ccc(C(=O)N2CCCC2C(O)C(F)(F)F)n1 (centres unmarked)	1 to 25%
Cc1ccc(OCc2ccc(C(=O)N(CCC#N)CC3CCC3)o2)c(C)c1	51 to 75%
CC(C)CC(NC(=O)OC(C)(C)C)c1noc(Cc2c[nH]c3ccccc23)n1 (centres unmarked)	1 to 25%
Cc1ccc(C(=O)Oc2cccc(C3CN(C(=O)c4ccc(C)s4)CCO3)c2)s1 (centres unmarked)	1 to 25%
COC(=O)c1ccc(CN2CC(NC(=O)OC(C)(C)C)CCC2C(F)(F)F)cc1 (centres unmarked)	25 to 50%
O=C(CSCc1cccc(F)c1)Nc1ccc(-c2ccccc2)cc1	25 to 50%
CCN(CC)S(=O)(=O)c1cccc(C(=O)N2N=C(c3ccccc3)CC2(O)C(F)(F)F)c1 (centres unmarked)	25 to 50%
CC(C)c1ccc(CSc2nnc(SCCNC(=O)C3CCCC3)s2)cc1	51 to 75%
Cc1occc1C(=O)OCC(COC(=O)c1ccoc1C)NC(=O)OC(C)(C)C	25 to 50%
O=S(=O)(Cc1ccc(OC(F)(F)F)cc1)Nc1cccnc1-n1cccn1	25 to 50%
CC(C)(CN1CCN(c2cccc(Cl)c2)CC1)NS(=O)(=O)c1ccccc1	25 to 50%
O=C(Oc1ccc(Oc2ccccc2)cc1)c1ccccc1-c1ccc(C(F)(F)F)cc1	25 to 50%

Same assay, conditions: 20 μM compound; read-out: % Inhibition at 20 μM KRas G12D Q61H

inhibition at 20 µM	Structure (SMILES)
25 to 50%	CCc1c(C)sc2[nH]c(-c3ccccn3)nc(=O)c12
25 to 50%	Cc1ccccc1CC(=O)Nc1nnc(-c2ccccn2)[nH]1
25 to 50%	COc1c(C)cnc(CN2CCCCC2c2ncc[nH]2)c1C (centres unmarked)
25 to 50%	CC(c1ccc(Cl)cc1Cl)N(C)Cc1nnc(-c2ccccc2)o1 (centres unmarked)
25 to 50%	OC1CCC(Nc2nc(-c3ccccn3)nc3c2CCC3)CC1 (centres unmarked)

The next lines start with the compound.

Structure (SMILES)	inhibition at 20 µM
O=C(Nc1cccc(C(=O)Nc2nnc(-c3ccccn3)[nH]2)c1)c1cccnc1	25 to 50%
O=C(Nc1nc(-c2ccccn2)cs1)c1ccc(=O)n(Cc2ccccc2)n1	25 to 50%
CC(C)c1ccc2nc(-c3ccccn3)[nH]c(=O)c2c1	25 to 50%
O=c1nc(-c2ccccn2)[nH]c2c1cnn2-c1cccc(C(F)(F)F)c1	25 to 50%
